Experimental data: ChEMBL document CHEMBL5518180, “Design, synthesis, and biological evaluation of harmine derivatives as topoisomerase I inhibitors for cancer treatment” (Eur J Med Chem, 2024)
The source made the active and inactive calls. The calls are words filed in the database; no cut-off is given here.

Legend:
[1] = test system: MCF7; experiment: Induction of apoptosis in human MCF7 cells assessed as late apoptotic cells at 0.5 uM incubated for 24 hrs by Annexin V-FITC/Propidium Iodide staining based flow cytometry analysis (reference value: 5.58 %); assay type: functional
[2] = Toxicity in BALB/c mouse transplanted with […] cells assessed as change in creatinine level at 5 to 20 mg/kg, ip administered for 14 days by biochemical analysis; assay type: organism-based; details: in vivo, 336 h, dose 5-20 mg/kg, time 14 day
[3] = target: T1, DNA topoisomerase 1 (Homo sapiens) (UniProt P11387); experiment: Inhibition of Topoisomerase I (unknown origin) assessed as inhibition of relaxation of supercoiled DNA incubated for 90 mins in presence of pBR322 by electrophoretic analysis; details: dose 25-100 µM
T1 sequence (whole entry): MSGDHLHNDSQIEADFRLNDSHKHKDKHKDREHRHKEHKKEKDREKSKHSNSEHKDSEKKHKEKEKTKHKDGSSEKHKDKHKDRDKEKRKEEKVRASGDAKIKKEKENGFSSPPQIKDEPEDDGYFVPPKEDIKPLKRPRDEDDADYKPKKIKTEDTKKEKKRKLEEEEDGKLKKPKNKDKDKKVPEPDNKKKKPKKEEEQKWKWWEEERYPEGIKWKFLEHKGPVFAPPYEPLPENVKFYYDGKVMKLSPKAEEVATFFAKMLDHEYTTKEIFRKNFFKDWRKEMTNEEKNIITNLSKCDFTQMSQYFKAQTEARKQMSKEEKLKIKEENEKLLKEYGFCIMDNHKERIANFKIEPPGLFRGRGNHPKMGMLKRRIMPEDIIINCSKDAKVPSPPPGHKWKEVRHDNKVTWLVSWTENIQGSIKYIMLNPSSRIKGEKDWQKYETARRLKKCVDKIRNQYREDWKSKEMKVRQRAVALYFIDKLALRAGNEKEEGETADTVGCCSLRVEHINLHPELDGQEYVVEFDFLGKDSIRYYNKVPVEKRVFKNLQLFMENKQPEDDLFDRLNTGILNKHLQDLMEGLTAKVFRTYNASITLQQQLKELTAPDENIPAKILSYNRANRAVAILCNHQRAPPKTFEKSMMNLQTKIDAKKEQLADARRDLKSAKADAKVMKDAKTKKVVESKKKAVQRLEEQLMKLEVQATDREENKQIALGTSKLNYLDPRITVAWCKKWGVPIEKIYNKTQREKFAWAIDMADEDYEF

[4] = Toxicity in BALB/c mouse transplanted with […] cells assessed as spleen damage at 5 to 20 mg/kg, ip administered for 14 days by hematoxylin and eosin staining based analysis; assay type: organism-based; details: in vivo, 336 h, dose 5-20 mg/kg, time 14 day
[5] = Toxicity in BALB/c mouse transplanted with […] cells assessed as change in lactate dehydrogenase level at 5 to 20 mg/kg, ip administered for 14 days by biochemical analysis; assay type: organism-based; details: in vivo, 336 h, dose 5-20 mg/kg, time 14 day
[6] = test system: MCF7; experiment: Induction of DNA double-strand breaks in human MCF7 cells assessed as increase in gamma-H2AX protein expression incubated for 48 hrs by Western blotting analysis; assay type: functional, cell-based; details: dose 0.25-1 µM
[7] = test system: MCF7; experiment: Induction of apoptosis in human MCF7 cells assessed as increase in phosphorylated Bim protein expression incubated for 24 hrs by Western blotting analysis; assay type: functional, cell-based; details: dose 0.1-2 µM
[8] = test system: HT-29; experiment: Antiproliferative activity against human HT-29 cells assessed as inhibition of cell growth incubated for 48 hrs by MTT assay; assay type: functional, cell-based; details: HT-29, 48 h
[9] = test system: MDA-MB-231; experiment: Antiproliferative activity against human MDA-MB-231 cells assessed as inhibition of cell growth incubated for 48 hrs by MTT assay; assay type: functional, cell-based; details: MDA-MB-231, 48 h
[10] = test system: MCF7; experiment: Induction of apoptosis in human MCF7 cells assessed as necrotic cells at 0.5 uM incubated for 24 hrs by Annexin V-FITC/Propidium Iodide staining based flow cytometry analysis (reference value: 0.082 %); assay type: functional
[11] = Toxicity in BALB/c mouse transplanted with […] cells assessed as change in creatine kinase level at 5 to 20 mg/kg, ip administered for 14 days by biochemical analysis; assay type: organism-based; details: in vivo, 336 h, dose 5-20 mg/kg, time 14 day
[12] = Cytotoxicity against human L02 cells assessed as inhibition of cell growth incubated for 48 hrs by MTT assay; assay type: toxicity, cell-based
[13] = test system: MCF7; experiment: Induction of apoptosis in human MCF7 cells assessed as decrease in Bcl-2 protein level incubated for 24 hrs by Western blotting analysis; assay type: functional, cell-based; details: dose 0.1-2 µM
[14] = test system: MCF7; experiment: Induction of apoptosis in human MCF7 cells assessed as early apoptotic cells at 0.1 uM incubated for 24 hrs by Annexin V-FITC/Propidium Iodide staining based flow cytometry analysis (reference value: 2.54 %); assay type: functional
[15] = test system: 4T1; experiment: Antitumor activity against mouse 4T1 cells transplanted in BALB/c mouse assessed as tumor growth inhibition rate at 10 mg/kg, ip administered for 14 days relative to control; assay type: functional; set-up: scale not given: the % may be the effect or the level left; details: time 14 day
[16] = test system: MCF7; experiment: Induction of apoptosis in human MCF7 cells assessed as early apoptotic cells at 0.5 uM incubated for 24 hrs by Annexin V-FITC/Propidium Iodide staining based flow cytometry analysis (reference value: 2.54 %); assay type: functional
[17] = Toxicity in BALB/c mouse transplanted with […] cells assessed as lung damage at 5 to 20 mg/kg, ip administered for 14 days by hematoxylin and eosin staining based analysis; assay type: organism-based; details: in vivo, 336 h, dose 5-20 mg/kg, time 14 day
[18] = test system: MCF7; experiment: Induction of DNA damage in human MCF7 cells at 5 to 10 uM pre-incubated for 24 hrs by Comet assay; assay type: functional, cell-based; details: dose 5-10 µM
[19] = Toxicity in BALB/c mouse transplanted with […] cells assessed as change in serum alanine aminotransferase level at 5 to 20 mg/kg, ip administered for 14 days by biochemical analysis; assay type: organism-based; details: in vivo, 336 h, dose 5-20 mg/kg, time 14 day
[20] = test system: MCF7; experiment: Induction of apoptosis in human MCF7 cells assessed as increase in cleaved-PARP protein expression incubated for 24 hrs by Western blotting analysis; assay type: functional, cell-based; details: dose 0.1-2 µM
[21] = test system: MCF7; experiment: Inhibition of colony formation in human MCF7 cells incubated for 2 weeks by crystal violet staining based analysis; assay type: functional, cell-based; details: dose 0.075-1.2 µM
[22] = test system: MCF7; experiment: Induction of apoptosis in human MCF7 cells assessed as viable cells at 0.5 uM incubated for 24 hrs by Annexin V-FITC/Propidium Iodide staining based flow cytometry analysis (reference value: 91.8 %); assay type: functional; details: read-out: Activity
[23] = test system: MCF7; experiment: Induction of apoptosis in human MCF7 cells assessed as increase in Bax protein expression incubated for 24 hrs by Western blotting analysis; assay type: functional, cell-based; details: dose 0.1-2 µM
[24] = test system: MCF7; experiment: Induction of apoptosis in human MCF7 cells assessed as viable cells at 2 uM incubated for 24 hrs by Annexin V-FITC/Propidium Iodide staining based flow cytometry analysis (reference value: 91.8 %); assay type: functional; details: read-out: Activity
[25] = test system: 4T1; experiment: Antitumor activity against mouse 4T1 cells transplanted in BALB/c mouse assessed as tumor growth inhibition administered for 14 days; assay type: functional; details: dose 5-20 mg/kg, route ip, time 14.0 day
[26] = test system: MCF7; experiment: Induction of apoptosis in human MCF7 cells assessed as viable cells at 0.1 uM incubated for 24 hrs by Annexin V-FITC/Propidium Iodide staining based flow cytometry analysis (reference value: 91.8 %); assay type: functional; details: read-out: Activity
[27] = test system: MCF7; experiment: Induction of apoptosis in human MCF7 cells assessed as late apoptotic cells at 0.1 uM incubated for 24 hrs by Annexin V-FITC/Propidium Iodide staining based flow cytometry analysis (reference value: 5.58 %); assay type: functional

With `O=C(/C=C/c1ccc(Cl)c([N+](=O)[O-])c1)c1nccc2c1[nH]c1ccccc12` the Activity [1] was 8.65%, the Activity [2] was “Non-Toxic” and the inhibition [3] was “Dose-Dependent Effect”. The Activity [4] was “Non-Toxic”, the Activity [5] was “Non-Toxic” and the Activity [6] was “Dose-Dependent Effect”. For the same compound, the Activity [7] was “Dose-Dependent Effect”, the IC50 [8] was 570 nM and the IC50 [9] was 980 nM. The Activity [10] was 0.27%, the Activity [11] was “Non-Toxic” and the IC50 at 48 h [12] was 9610 nM. The Activity [13] was “Dose-Dependent Effect”, the Activity [14] was 7.52% and the Activity [15] was 43.19%. For the same compound, the Activity [16] was 20.1%, the Activity [17] was “Non-Toxic” and the Activity [18] was “Active”. The Activity [19] was “Non-Toxic”, the Activity [20] was “Dose-Dependent Effect” and the inhibition [21] was “Dose-Dependent Effect”. The viability at 0.5 µM [22] was 71%, the Activity [23] was “Dose-Dependent Effect” and the viability at 2 µM [24] was 60.6%. For the same compound, the TGI [25] was “Dose-Dependent Effect”, the viability at 0.1 µM [26] was 85.3% and the Activity [27] was 7.06%.
